In US11439607B2 (Paracelsus Neuroscience I, LLC, priority 2016, dated 2022):

How the values were obtained:
[1] = tested on: Healthy rats; experiment: Healthy rats - Tail flick test; assay type: in vivo; conditions: Internal reference, Morphine 4 mg/kg s.c.
Method: (§1) Depending on the test, the percentage of activity was calculated from the mean value of the vehicle-treated animals and compared to naïve animals, control paw or cut-off value.

[2] = tested on: Bennett model; experiment: Bennett model - Paw pressure test; assay type: in vivo, rodent; conditions: Internal reference, Morphine 4 mg/kg s.c.
Method: as §1

[3] = tested on: Formalin test; experiment: Formalin test - Score; assay type: in vivo, rodent; conditions: internal reference, Morphine 4 mg/kg s.c.
Method: as §1

[4] = tested on: Healthy rats; experiment: Healthy rats - Paw pressure test; assay type: in vivo; conditions: Internal reference, Morphine 4 mg/kg s.c.
Method: as §1

[5] = tested on: Brennan model; experiment: Brennan model - Electronic Von Frey test; assay type: in vivo, rodent; conditions: Internal reference, Morphine 4 mg/kg s.c.
Method: as §1

[6] = tested on: CCI rats; experiment: Chronic constriction injury (CCI) model, von Frey paw withdrawal threshold; assay type: in vivo, rat; conditions: gabapentin 100 mg/kg p.o., 2 hours after administration
Method: Peripheral nerve injury was performed according to the method of Bennett and Xie (Bennett and Xie, 1988), with paw withdrawal thresholds to Von Frey filament stimulation measured as described previously (Chaplan et al., 1994; Tal and Bennett, 1994).
In the first cohort of nerve injured rats, hindpaw mechanical hypersensitivity was evident by day 7 and maintained for the duration of the experiment (see FIG. 4A). […] Experiments were run using a simple cross-over design. Tactile hypersensitivity of rats was evaluated one day prior to drug testing. Drugs were allowed to wash out for one week at which time the mechanical hypersensitivity was reassessed. Rats were then randomly re-assigned to groups prior to the next arm of the study being run. In the final arm, tissue was collected from 3 animals from each group immediately after behavioral assessment of allodynia. Dosing of drugs, assessment of mechanical thresholds and collection of tissues were performed by individual experimenters all blinded to treatments.
All CCI data are presented as mean+/−S.E.M. and were analyzed using ANOVA followed by Fisher's PLSD post-hoc analysis (StatView, Cary, N.C.) when appropriate.

[7] = tested on: Oxaliplatin model; experiment: Oxaliplatin - Acetone test (reaction time); assay type: in vivo, rodent; conditions: Internal reference, Gabapentin 100 mg/kg p.o.
Method: as §1

[8] = tested on: Kaolin model; experiment: Kaolin - Gait score; assay type: in vivo, rodent; conditions: Internal reference, Indomethacin 10 mg/kg p.o.
Method: as §1

[9] = tested on: Carrageenan model; experiment: Carrageenan - Paw pressure test; assay type: in vivo, rodent; conditions: Internal reference, Indomethacin 30 mg/kg p.o.
Method: as §1

With `CN1CC[C@]23c4c5ccc(O)c4O[C@H]2[C@@H](O)C=C[C@H]3[C@H]1C5` [Morphine] the “% of activity vs. vehicle” value [1] was 66%, the “% of activity vs. vehicle” value [2] was 191% and the “% of activity vs. vehicle” value ([3]; early phase) was 57%. The “% of activity vs. vehicle” value ([3]; late phase) was 38%, the “% of activity vs. vehicle” value [4] was 69% and the “% of activity vs. vehicle” value [5] was 88%.
With `NCC1(CC(=O)O)CCCCC1` [Gabapentin] the “Reversal of mechanical hypersensitivity (tactile allodynia)” value [6] was 66% and the “% of activity vs. vehicle” value [7] was 82%.
`COc1ccc2c(c1)c(CC(=O)O)c(C)n2C(=O)c1ccc(Cl)cc1` [Indomethacin] was tested, and the “% of activity vs. vehicle” value [8] was 58% and the “% of activity vs. vehicle” value [9] was 100%.
